The assay relates to c-myc in 22RV-1 cells. Kind of assay: Human c-myc ELISA assay. The format is cell-based. The settings on record: Homo sapiens; for Emax: 22Rv1, 18 h, read-out: Degradation of BRD4: Maximum inhibition (%) c-Myc ELISA in 22RV1 cells; for DC50: 22Rv1, read-out: Degradation of BRD4: DC50 (uM) c-Myc ELISA in 22RV1 cells. The procedure, abridged:
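c-myc levels measured by ELISA in RIPA lysates of 22RV-1 cells, calibrated with a 333-0 pg/ml standard curve. Lysates came from cells exposed for 18 h to an 8-point, 1:3 dose series starting at 300 nM or 1 μM final in 0.1% DMSO. Suppression potency given as DC50.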

The DC50 is the midpoint of the concentration-degradation curve.

Molecules are shown by their SMILES. A value given as a limit tells only on which side of the number the result lay.

In the case of `Cc1ncsc1-c1ccc([C@H](C)NC(=O)[C@@H]2C[C@@H](O)CN2C(=O)[C@@H](NC(=O)CN2CCC(O[C@H]3C[C@H](NC(=O)C[C@@H]4N=C(c5ccc(Cl)cc5)c5ccccc5-c5c(C)noc54)C3)CC2)C(C)(C)C)cc1` [Example 350, (2S,4R)-1-[(2S)-3,3-dimethyl-2-(2-{4-[(1,3-trans)-3-{2-[(7S)-9-(4-chlorophenyl)-3-methyl-5-oxa-4,8-diazatricyclo[8.4.0.0^2,^6]tetradeca-1(10),2(6),3,8,11,13-hexaen-7-yl]acetamido}cyclobutoxy]piperidin-1-yl}acetamido)butanoyl]-4-hydroxy-N-[(1S)-1-[4-(4-methyl-1,3-thiazol-5-yl)phenyl]ethyl]pyrrolidine-2-carboxamide], the Emax is 100% and the DC50 is below 0.01 µM.

Regarding `Cc1ncsc1-c1ccc([C@H](C)NC(=O)[C@@H]2C[C@@H](O)CN2C(=O)[C@H](C(C)C)n2cc(-c3cc(O[C@H]4C[C@H](NC(=O)C[C@@H]5N=C(c6ccc(Cl)cc6)c6c(sc(C)c6C)-n6c(C)nnc65)C4)ccn3)cn2)cc1` [Example 304], the Emax was found to be 95% and the DC50 fell in the range of 0.01 to 0.1 µM.

Turning to `Cc1ncsc1-c1ccc([C@H](C)NC(=O)[C@@H]2C[C@@H](O)CN2C(=O)[C@@H](NC(=O)CCc2ccc(O[C@H]3C[C@H](NC(=O)C[C@@H]4N=C(c5ccc(Cl)cc5)c5c(sc(C)c5C)-n5c(C)nnc54)C3)nc2)C(C)(C)C)cc1` [Example 172], the Emax amounted to 96% and the half-maximal degradation concentration (DC50) was below 0.01 µM.

With `Cc1ncsc1-c1ccc(CNC(=O)[C@@H]2C[C@@H](O)CN2C(=O)[C@@H](C(C)C)n2cc(-c3ccnc(O[C@@H](C)CNC(=O)C[C@@H]4N=C(c5ccc(Cl)cc5)c5c(sc(C)c5C)-n5c(C)nnc54)c3)cn2)cc1` [Example 179], the Emax stood at 13.9% and the 50% degradation concentration (DC50) is above 1 µM.

For `Cc1ncsc1-c1ccc([C@H](C)NC(=O)[C@@H]2C[C@@H](O)CN2C(=O)[C@H](n2cc(-c3ccnc(O[C@H]4C[C@@H](NC(=O)C[C@@H]5N=C(c6ccc(Cl)cc6)c6c(sc(C)c6C)-n6c(C)nnc65)C4)c3)cn2)C(C)(C)C)cc1` [Example 239], the Emax amounted to 39% and the DC50 was above 1 µM.

In the case of `Cc1ncsc1-c1ccc(CNC(=O)[C@@H]2C[C@@H](O)CN2C(=O)[C@@H](NC(=O)COCCCOCCCOc2ccc(NC(=O)C[C@@H]3N=C(c4ccc(Cl)cc4)c4c(sc(C)c4C)-n4c(C)nnc43)c(F)c2)C(C)(C)C)cc1` [Example 20], the Emax amounted to 94% and the DC50 lay in the range of 0.01 to 0.1 µM.

Consider `Cc1ncsc1-c1ccc(CNC(=O)[C@@H]2C[C@@H](O)CN2C(=O)[C@@H](NC(=O)COCCOCCOCCCCOc2ccc3c(c2)c2c(C(N)=O)cc(-c4c(C)noc4C)cc2n3Cc2ccccc2)C(C)(C)C)cc1` [Example 152], for which the Emax is 95% and the DC50 is 0.01 to 0.1 µM.

Take `Cc1ncsc1-c1ccc([C@H](C)NC(=O)[C@@H]2C[C@@H](O)CN2C(=O)[C@@H](NC(=O)Cc2ccc(-c3cn([C@@H](C)CNC(=O)C[C@@H]4N=C(c5ccc(Cl)cc5)c5c(sc(C)c5C)-n5c(C)nnc54)cn3)cc2)C(C)(C)C)cc1` [Example 341]: the Emax is 98.5% and the half-maximal degradation concentration (DC50) is below 0.01 µM.

In the case of `Cc1ncsc1-c1ccc([C@H](C)NC(=O)[C@@H]2C[C@@H](O)CN2C(=O)[C@@H](NC(=O)CCCCOCCCNC(=O)C[C@@H]2N=C(c3ccc(Cl)cc3)c3c(sc(C)c3C)-n3c(C)nnc32)C(C)(C)C)cc1` [Example 176], the Emax worked out at 90.3% and the DC50 is below 0.01 µM.

`Cc1ncsc1-c1ccc(CNC(=O)[C@@H]2C[C@@H](O)CN2C(=O)[C@H](C(C)C)N2Cc3ccccc3C2=O)c(OCCOCCOCCCCOCCOCCNC(=O)C[C@@H]2N=C(c3ccc(Cl)cc3)c3c(sc(C)c3C)-n3c(C)nnc32)c1` [Example 6]: the Emax was found to be 100% and the DC50 fell in the range of 0.1 to 1 µM.

As to `Cc1ncsc1-c1ccc(CNC(=O)[C@@H]2C[C@@H](O)CN2C(=O)[C@@H](NC(=O)COCCCOCCCOc2ccc(NC(=O)C[C@@H]3N=C(c4ccc(Cl)cc4)c4c(sc(C)c4C)-n4cnnc43)cc2)C(C)(C)C)cc1` [Example 53], the Emax was found to be 56% and the DC50 was above 1 µM.

For the origin of these results see patent US11554171B2, “Compounds and methods for the targeted degradation of bromodomain-containing proteins” (Arvinas Operations, Inc., priority 2015, dated 2023).
